Laboratory results published in patent US5659023A, “Nucleotide analogues” (Gilead Sciences, Inc., priority 1995, dated 1997).
Read-outs that look alike come from different tables or passages of the source.

How the values were obtained:
human CMV = test: standard plaque inhibition assay, inhibitory effect against human CMV; format: cell-based; settings: Human betaherpesvirus 5
Experimental: (§1) Compounds made in the foregoing examples were assayed for inhibitory effect against human CMV using the standard plaque inhibition assay (Lurain, "J. Vir." 66:7146-7152 (1992)). The cells used for the toxicity assay were normal human dermal fibroblasts.

[1] = toxicity assay in normal human dermal fibroblasts; format: cell-based
Experimental: as §1

[2] = human CMV, plaque inhibition assay (Table 8), read-out: IC50

| Compound | IC50 (human CMV; [2]) | CC50 [1] | IC50 (human CMV; reference HPMPC, read-out: IC50) | CC50 ([1]; reference HPMPC, read-out: CC50) | IC50 (human CMV) |
| --- | --- | --- | --- | --- | --- |
| C[C@@H]1OC(P(=O)(O)O)=CC[C@@H]1n1ccc(N)nc1=O [(65), 4-(cytosin-1-yl)-2,3,6-trideoxy-L-threo-hex-1-enopyranosylphosphonic acid] | 300 µM | > 1000 µM |  |  |  |
| Nc1ccn(C[C@@H](CO)OCP(=O)(O)O)c(=O)n1 [HPMPC, reference compound] |  |  | 0.5 µM | 200 µM |  |
| Nc1ccn([C@@H]2CC[C@H](P(=O)(O)O)O[C@@H]2CO)c(=O)n1 [(32'), 4-(cytosin-1-yl)-β-D-threo-hexopyranosylphosphonic acid] | 80 µM | > 1000 µM |  |  |  |
| Nc1ccn([C@@H]2CC=C(P(=O)(O)O)O[C@@H]2CO)c(=O)n1 [(28'), 4-(cytosin-1-yl)-2,3-dideoxy-D-threo-hex-1-enopyranosyl phosphonic acid] | 40 µM | > 1000 µM |  |  |  |
| C[C@@H]1O[C@H](P(=O)(O)O)C=C[C@@H]1n1ccc(N)nc1=O [(64), 4-(cytosin-1-yl)-2,3,6-trideoxy-β-L-threo-hex-2-enopyranosylphosphonic acid] | 200 µM | > 1000 µM |  |  |  |
| Nc1ccn([C@@H]2C=C[C@H](P(=O)(O)O)O[C@@H]2CO)c(=O)n1 [(30), 4-(cytosin-1-yl)-2,3-dideoxy-β-D-threo-hex-2-enopyranosylphosphonic acid] |  | > 1000 µM |  |  | 10 µM |
